# From patent publication US20090215896A1, “REELIN DEFICIENCY OR DYSFUNCTION AND METHODS RELATED THERETO” (MARTEK BIOSCIENCES CORPORATION, priority 2004, published 2009)
# Test system: Reelin-deficient mice (B6C3Fe a/a-Reln<rl>/J)
# Experiment: Reelin feeding study: number of offspring with reeler phenotype per diet group
# Assay type: in vivo
# Conditions: DHA to pregnant and lactating dam and to pups after weaning, vs DHA Deficient Diet; P=0.04
# Text: In the following experiment, the inventors tested whether LC-PUFA dietary enrichment (DHA) for mice lacking one or more normal reelin genes will correct Reelin histopathology/symptoms and will normalize the fatty acid profiles observed in Reelin-deficient mice. Specifically, the inventors evaluated whether dietary enrichment of long-chain polyunsaturated fatty acids (DHA) will correct or modulate Reelin histopathology/symptoms in Reelin-deficient mice.
# Materials and Methods: The Reelin feeding study was sponsored by Martek Biosciences Corporation and initiated at Jackson Labs, Bar Harbor, Me. (Stock used: 300235 B6C3Fe a/a-Reln/J). Heterozygous females were mated with heterozygous males and received one of two experimental diets: a DHA DEFICIENT DIET (0% DHA by weight; 0.14% alpha linolenic acid by weight), or a DHA ADEQUATE DIET (0.462% DHA by weight, with 0.115% alpha linolenic acid by weight). The females continued to receive the specific diet throughout pregnancy and lactation. Homozygous, heterozygous, and wild-type pups born to pregnant females were placed on the same specific maternal diet at weaning. The number of reeler mice was recorded within each diet group. […] Pups were sacrificed at between 8 and 14 weeks of age and tissues were collected for fatty acid analysis.
compound,measurement,value
"CCC=CCC=CCC=CCC=CCC=CCC=CCCC(=O)O [DHA, 4,7,10,13,16,19-docosahexaenoic acid]",reduction of the incidence of male reeler animals,~3 fold
